From article PMC3756011, “Evaluation of Memory Enhancing Clinically Available Standardized Extract of Bacopa monniera on P-Glycoprotein and Cytochrome P450 3A in Sprague-Dawley Rats” (PLoS ONE, 2013)

Assays:
[1] = Oral pharmacokinetics of carbamazepine and carbamazepine 10,11-epoxide with and without BM pre-treatment; assay type: in vivo, male Sprague-Dawley rat; conditions: for CL/F / Cmax / AUC(0-inf) / MRT / AUC(0-∞): Mean ± SD
Method: Samples were vigorously vortexed for five minutes and centrifuged at 12,000 rpm for 20 minutes at 4°C. Supernatant thus obtained were analysed using HPLC-UV method. […] Column efﬂuent was monitored at 286 nm. The mobile phase was a mixture of 10 mM ammonium acetate (pH 7.4) and acetonitrile (65∶35). Chromatography was performed at a ﬂow rate of 1.0 ml/min. Pharmacokinetic parameters of probe drugs in plasma were derived from plasma concentration-time profile of probe drugs by Non-Compartmental analysis using WinNonlin Ver 5.1 (Pharsight Corporation, Mountain Veiw, CA).

Pgp = tested on: Pgp; set-up: method as in PMID 11318771; conditions: earlier reports; cited from earlier work
[2] = set-up: method as in PMID 15673597; conditions: rat vs human; cited from earlier work
[3] = Oral pharmacokinetics of digoxin with and without BM pre-treatment; assay type: in vivo, male Sprague-Dawley rat; conditions: for AUC(0-inf) / CL/F / MRT / Vd/F / half-life / Cmax: male, Sprague-Dawley, rat, plasma, po, 0.2 mg/kg
Source text: Rats were divided in two groups (total 40 rats; 10 rats each group) for both probe drugs viz. control and BM pre-treated group.
Pharmacokinetic parameters of probe drugs in plasma were derived from plasma concentration-time profile of probe drugs by Non-Compartmental analysis using WinNonlin Ver 5.1 (Pharsight Corporation, Mountain Veiw, CA).

[4] = 2 hours after digoxin 0.2 mg/kg oral, BM pretreated vs vehicle
[5] = BM pre-treated vs vehicle treated rats, abstract
[6] = BM pretreated compared to vehicle pretreated rats
[7] = BM pre-treated compared to vehicle treated rats
[8] = BM pretreated rats (31 mg/kg/day 7 days), digoxin 0.2 mg/kg oral
[9] = vehicle pretreated rats, digoxin 0.2 mg/kg oral
[10] = BM pretreated rats (31 mg/kg/day 7 days), carbamazepine 50 mg/kg oral
[11] = vehicle pretreated rats, carbamazepine 50 mg/kg oral

NC(=O)N1c2ccccc2C=Cc2ccccc21 [CBZ, carbamazepine]
increase in AUC following BM pre-treatment [1, 5]: 4 fold | increase in Cmax following BM pre-treatment [1, 5]: 1.8 fold | decrease in CL/F in BM pretreated rats [1, 6]: 3.8 times | increase in mean AUC in BM pretreated rats [1, 6]: 4 times | increase in mean Cmax in BM pretreated rats [1, 6]: 1.8 times | CL/F ([1]; male, Sprague-Dawley, rat, in vivo, po, 50 mg/kg, BM pretreated rats (31 mg/kg/day 7 days), carbamazepine 50 mg/kg oral, read-out: CL/F (converted)): 323 mL/h/kg | CL/F ([1]; male, Sprague-Dawley, rat, in vivo, po, 50 mg/kg, vehicle pretreated rats, carbamazepine 50 mg/kg oral, read-out: CL/F (converted)): 1250 mL/h/kg | Cmax ([1]; male, Sprague-Dawley, rat, plasma, po, 50 mg/kg, BM pretreated rats (31 mg/kg/day 7 days), carbamazepine 50 mg/kg oral 24 h after last BM, read-out: Cmax): 14400 ± 1220 ng/mL | AUC(0-inf) ([1]; male, Sprague-Dawley, rat, plasma, po, 50 mg/kg, BM pretreated rats (31 mg/kg/day 7 days), carbamazepine 50 mg/kg oral): 169000 ± 65600 ng·h/mL | MRT ([1]; male, Sprague-Dawley, rat, plasma, po, 50 mg/kg, BM pretreated rats (31 mg/kg/day 7 days), carbamazepine 50 mg/kg oral, read-out: MRT): 10.7 ± 6.57 h | AUC(0-inf) ([1]; male, Sprague-Dawley, rat, plasma, po, 50 mg/kg, vehicle pretreated rats, carbamazepine 50 mg/kg oral): 40400 ± 3890 ng·h/mL | Cmax ([1]; male, Sprague-Dawley, rat, plasma, po, 50 mg/kg, vehicle pretreated rats, carbamazepine 50 mg/kg oral, read-out: Cmax): 8170 ± 1460 ng/mL | MRT ([1]; male, Sprague-Dawley, rat, plasma, po, 50 mg/kg, vehicle pretreated rats, carbamazepine 50 mg/kg oral, read-out: MRT): 5.46 ± 1.2 h | Pgp substrate status (Pgp): not a Pgp substrate | metabolic clearance, rat higher compared to human [2]: 10 fold

C[C@H]1O[C@@H](O[C@H]2[C@@H](O)C[C@H](O[C@H]3[C@@H](O)C[C@H](O[C@H]4CC[C@@]5(C)[C@H](CC[C@@H]6[C@@H]5C[C@@H](O)[C@]5(C)[C@@H](C7=CC(=O)OC7)CC[C@]65O)C4)O[C@@H]3C)O[C@@H]2C)C[C@H](O)[C@@H]1O [Digoxin, digoxin]
decrease in CL/F with BM pre-treatment [3, 7]: 27% | increase in AUC with BM pre-treatment [3, 7]: 37% | increase in Cmax with BM pre-treatment [3, 7]: 9% | increase in MRT with BM pre-treatment [3, 7]: 17% | increase in T1/2 with BM pre-treatment [3, 7]: 48% | increase in AUC following BM pre-treatment [3, 5]: 1.3 fold | AUC(0-inf) [3, 8]: 70.71 ± 0.351 ng·h/mL | CL/F [3, 8]: 3.53 mL/h/kg | MRT [3, 8]: 8.88 ± 1.28 h | Vd/F [3, 8]: 0.0221 ± 0.0103 L/kg | half-life [3, 8]: 4.33 ± 2.03 h | Cmax ([3]; BM pretreated rats (31 mg/kg/day 7 days), digoxin 0.2 mg/kg oral 24 h after last BM): 5.28 ± 0.205 ng/mL | AUC(0-inf) [3, 9]: 51.5 ± 6.1 ng·h/mL | CL/F [3, 9]: 4.88 mL/h/kg | Cmax [3, 9]: 4.82 ± 0.092 ng/mL | MRT [3, 9]: 7.56 ± 0.0147 h | Vd/F [3, 9]: 0.0208 ± 0.00471 L/kg | half-life [3, 9]: 2.92 ± 0.322 h | increase in tissue digoxin concentration in intestine ([4]; intestine): 1.3 fold | increase in tissue digoxin concentration in kidney ([4]; kidney): 1.3 fold

NC(=O)N1c2ccccc2C2OC2c2ccccc21 (stereo not drawn) [CBZ-E, carbamazepine 10,11-epoxide]
Cmax ([1]; BM pretreated rats (31 mg/kg/day 7 days), carbamazepine 50 mg/kg oral 24 h after last BM): 819 ± 170 ng/mL | AUC(0-∞) [1, 10]: 15100 ± 7360 ng·h/mL | MRT [1, 10]: 21.65 ± 7.69 h | AUC(0-∞) [1, 11]: 14680 ± 2900 ng·h/mL | CL/F [1, 11]: 3.31 ± 0.56 mL/h/kg | Cmax [1, 11]: 1370 ± 11 ng/mL | MRT [1, 11]: 10.05 ± 0.33 h
